The text below walks through data of patent US20120040951A1, “HETEROARYL COMPOUNDS USEFUL AS RAF KINASE INHIBITORS” (priority 2008, published 2012).

For this assay, the system named is phospho-ERK in melanoma derived WM-266-4 cells. The assay is described as follows: Mechanistic cellular assay for Raf kinase activity (phospho-ERK, Bio-Plex). The note with it: Homo sapiens, treated 1-2 hr at 37° C., serum free medium, read-out: pERK EC50. The class given is cell-based. From the text:
(2) Mechanistic Cellular Assay for Raf Kinase Activity
The following method was utilized for quantifying the amount of phospho-ERK in melanoma derived WM-266-4 cells (one allele each of wild type BRaf and mutant BRaf (V600D) as an indicator of Raf kinase activity in cells treated with various kinase inhibitors.
(1) Detached adhered WM-266-4 cells from flask using 0.25% Trypsin. Resuspended cells in growth media (90% RPMI 1640, 10% FBS) and determine cell density.
(2) Seeded cells @ 10,000 cells/well in 96-well (flat bottom) tissue culture plates (36,000 cells/cm^2). Added growth media to a final volume of 200 uL/well and incubated overnight at 37° C.
(1) Prepared compound dilutions (1000× in DMSO) as follows. Starting with a stock of 5 mM compound in DMSO, diluted serially 3-fold in DMSO for a total of eight concentrations (5 mM, 1.67 mM, 0.556 mM, 0.185 mM, 0.062 mM, 0.021 mM, 0.007 mM, 0.002 mM).
(2) Prepared compound-containing media by adding 1 mL treatment media (100% RPMI 1640 without FBS) to 1 μL of compound dilution (from step 3).
(3) Removed plates (from step 2) from incubator. Aspirated media and replace with 150 μL compound-containing media. Incubate for 1-2 hr at 37° C.
(4) Removed plates (from step 5) from incubator and treated each as follows: aspirated compound-containing media and replaced with 300 μL ice-cold 1×PBS, aspirated PBS and replaced with 45 μL lysis buffer (Biorad Bio-Plex lysis buffer containing 0.4% v/v lysis buff. Factor 1, 0.2% v/v lysis buff. Factor 2, and PMSF to 2 mM final concentration), and then placed plate on ice until all plates were treated.
(5) After all plates were processed (step 6), placed plates on an orbital shaker and shook at room temperature for at least 15 min.
(6) Finally, removed plates from shaker, and transfered 40 μL/well of lysate from each to new corresponding 96-well V-bottom plates. At this point, samples may be frozen and stored @−80 C.°.
(1) Thaw (if necessary) plates (from step 8) and added 40 μL of Phospho-Protein Assay Buffer to each 40 μL lysate for a 1:1 dilution.
(2) Prepared phospho-ERK1,2 Bioplex beads by diluting 1:50 with Bioplex Wash Buffer (mixing 49 μL Wash Buffer with 1 μL of phospho-ERK1,2 Bioplex beads for each sample to be analyzed). Protected from light by wrapping tube in aluminum foil and kept at room temperature.
(3) Prepared Filter Plate by adding 100 μL/well Bioplex Wash Buffer and removed by vacuum filtration.
(4) Add 50 μL of bead solution (from step 10) to each well of a prepared Filter Plate (from step 11) and vacuum filter. Wash/filter 2× with 100 μL/well Wash Buffer.
(5) Added 50 μL of each lysate to appropriate well of the Filter Plate (from step 12). For this and all subsequent plate incubation steps, placed plate on an inverted plate cover (reduces background), and wrapped in aluminum foil (to protect from light). Shook overnight at room temperature. Included positive (control lysate) and negative (lysis buffer) controls.
(1) Prepared detection antibody (phospho-ERK1,2 Ab) by diluting 1:25 with Detection Antibody Dilution Buffer Buffer (mixing 24 μL Detection Antibody Dilution Buffer with 1 μL of phospho-ERK1,2 Ab for each sample to be analyzed).
(2) Removed plate (from step 13) from shaker and vacuum filter. Washed/filter plate 3× with 100 μL/well Wash Buffer. Added 25 μL of diluted antibody to each well. Incubated on shaker at RT for 30-45 min.
(3) Prepared streptavidin-PE by diluting 1:100 with Wash Buffer (mixing 49.5 μL Wash Buffer with 0.5 μL of 100× streptavidin-PE for each sample to be analyzed). Protected from light.
(4) Removed plate (from step 15) from shaker and vacuum filter. Washed/filter plate 3× with 100 μL/well Wash Buffer. Add 50 μL of diluted streptavidin-PE solution (from step 16) to each sample well. Incubated on shaker for 10-20 min.
(5) Removed plate from shaker and vacuum filter. Wash/filter plate 3× with 100 μL/well Bead Resuspension Buffer. After last wash resuspended beads in 125 μL Bead Resuspension Buffer. […]

For orientation: EC50 means the concentration that produces a half-maximal response. Take `CC(NC(=O)c1cnn2cc(Br)ccc12)c1ncc(C(=O)Nc2cc(C(F)(F)F)c(Cl)cn2)s1` (stereo not shown) [Example 319]: the EC50 lay in the range of 100 to 1000 nM.

Regarding `CCN(CC)c1cnc2cnc(C(=O)NC(C)c3ncc(Nc4ccc(C(F)(F)F)cc4)s3)cn12` (stereo not shown) [Example 304], the EC50 lay within 100 to 1000 nM.

In the case of `CCn1cnc2cnc(C(=O)NC(C)c3cnc(Nc4ccc(C(F)(F)F)cn4)cn3)cc21` (stereo not shown) [Example 284], the EC50 lay within 100 to 1000 nM.

In the case of `CC(NC(=O)c1cc2c(cn1)ncn2C)c1cnc(Nc2cccc(C3(C)CC3)c2)s1` (stereo not shown) [Example 271], the EC50 is 100 to 1000 nM.

As to `CC(NC(=O)c1cn2c(N)cnc2cn1)c1ncc(Nc2ccc(C(F)(F)F)cc2)s1` (stereo not shown) [Example 302], the 50% effective concentration (EC50) lay in the range of 100 to 1000 nM.

As for `CC(NC(=O)c1cc2c(cn1)ncn2C)c1cnc(Nc2ccc(Cl)cc2)s1` (stereo not shown) [Example 249], the EC50 is 100 to 1000 nM.

In the case of `CCn1c(C(=O)NC(C)c2ncc(C(=O)Nc3cc(C(F)(F)F)c(Cl)cn3)s2)cnc1C` (stereo not shown) [Example 164], the EC50 lay within 100 to 1000 nM.

For `C[C@@H](NC(=O)c1cnc2n1CCC2)c1ncc(C(=O)Nc2cc(C(F)(F)F)c(Cl)cn2)s1` [Example 336], the EC50 is not above 100 nM.

Regarding `C[C@@H](NC(=O)c1cnc(N)n1C)c1ncc(C(=O)Nc2cc(C(F)(F)F)c(Cl)cn2)s1` [Example 147], the EC50 was not above 100 nM.

Consider `CC(NC(=O)c1cnn2c1CCCC2)c1ncc(C(=O)Nc2cc(C(F)(F)F)c(Cl)cn2)s1` (stereo not shown) [Example 84], for which the EC50 was not above 100 nM.

Take `C[C@@H](NC(=O)c1cncn1-c1ccccc1)c1ncc(C(=O)Nc2cc(C(F)(F)F)c(Cl)cn2)s1` [Example 144]: the EC50 was in the range of 100 to 1000 nM.

Consider `CC(C)Cn1cnc2cnc(C(=O)NC(C)c3cnc(Nc4ccc(C(F)(F)F)cc4)cn3)cc21` (stereo not shown) [Example 79], for which the EC50 lay within 100 to 1000 nM.

Turning to `C[C@@H](NC(=O)c1ccc2nc(N)sc2c1)c1ncc(C(=O)Nc2cc(C(F)(F)F)c(Cl)cn2)s1` [Example 59], the EC50 is not above 100 nM.

Take `C[C@@H](NC(=O)c1cc2c(cn1)ncn2CCS(C)(=O)=O)c1cnc(Nc2ccc(C(F)(F)F)cc2)cn1` [Example 186]: the EC50 was in the range of 100 to 1000 nM.

In the case of `C[C@@H](NC(=O)c1ccc2ncsc2c1)c1ncc(C(=O)Nc2cc(C(F)(F)F)c(Cl)cn2)s1` [Example 61], the EC50 was not above 100 nM.

In the case of `CC(NC(=O)c1cc2c(cn1)ncn2C)c1cnc(Nc2ccccc2)s1` (stereo not shown) [Example 247], the EC50 lay in the range of 1000 to 10000 nM.

On to `C[C@@H](NC(=O)c1c[nH]cn1)c1ncc(C(=O)Nc2cc(C(F)(F)F)c(Cl)cn2)s1` [Example 142], for which the EC50 was 1000 to 10000 nM.

Turning to `CC(NC(=O)c1cnn2c1CCCC2)c1cnc(Nc2ccc(C(F)(F)F)cc2)s1` (stereo not shown) [Example 83], the EC50 is not above 100 nM.

`Cc1ncc(C(=O)N[C@H](C)c2ncc(C(=O)Nc3cc(C(F)(F)F)c(Cl)cn3)s2)n1C` [Example 146]: the EC50 was not above 100 nM.

For `CC(NC(=O)c1cc2c(cn1)ncn2C)c1cnc(Nc2ccc(Cl)cc2)cn1` (stereo not shown) [Example 255], the EC50 lay in the range of 100 to 1000 nM.

As to `C[C@@H](NC(=O)c1cc2c(cn1)ncn2C1CN(S(=O)(=O)CC(F)(F)F)C1)c1cnc(Nc2ccc(C(F)(F)F)cc2)cn1` [Example 344], the EC50 was in the range of 100 to 1000 nM.

As to `CCCn1ncc(C(=O)N[C@H](C)c2ncc(C(=O)Nc3cc(C(F)(F)F)c(Cl)cn3)s2)c1C` [Example 122], the EC50 was 100 to 1000 nM.

As to `CC(NC(=O)c1cncc(Br)c1)c1ncc(C(=O)Nc2cc(C(F)(F)F)c(Cl)cn2)s1` (stereo not shown) [Example 50], the EC50 is 1000 to 10000 nM.

For the compound `C[C@@H](NC(=O)c1cnn(-c2ccccc2)c1)c1ncc(C(=O)Nc2cc(C(F)(F)F)c(Cl)cn2)s1` [Example 117], the EC50 was 1000 to 10000 nM.

On to `CC(NC(=O)c1cc2scnc2cn1)c1cnc(Nc2ccc(C(F)(F)F)cc2)s1` (stereo not shown) [Example 208], for which the EC50 was not above 100 nM.

Turning to `CC(NC(=O)c1cnn2cc(-c3cncc(F)c3)ccc12)c1ncc(C(=O)Nc2cc(C(F)(F)F)c(Cl)cn2)s1` (stereo not shown) [Example 329], the EC50 was not above 100 nM.

Turning to `CC(NC(=O)c1ccc2cn[nH]c2c1)c1ccc(C(=O)Nc2cccc(C(F)(F)F)c2)s1` (stereo not shown) [Example 194], the EC50 lay within 1000 to 10000 nM.

In the case of `CC(NC(=O)c1cc2c(cn1)ncn2C)c1cnc(Nc2cc(C(F)(F)F)ccn2)s1` (stereo not shown) [Example 251], the EC50 fell in the range of 1000 to 10000 nM.

Turning to `CC(NC(=O)c1cc2c(cn1)ncn2C)c1cnc(Nc2ccc(C(F)(F)F)nc2)s1` (stereo not shown) [Example 246], the EC50 was in the range of 100 to 1000 nM.

As for `CC(NC(=O)c1cc2c(cn1)ncn2C)c1cnc(Nc2cccc(C(F)(F)F)c2)s1` (stereo not shown) [Example 178], the EC50 was 100 to 1000 nM.

For the compound `C[C@@H](NC(=O)c1cc2nc[nH]c2cn1)c1ncc(C(=O)Nc2cc(C(F)(F)F)c(Cl)cn2)s1` [Example 39], the EC50 is not above 100 nM.

`CC(NC(=O)c1cc2c(cn1)ncn2CCN1CCOCC1)c1cnc(Nc2ccc(C(F)(F)F)cc2)s1` (stereo not shown) [Example 8]: the EC50 is not above 100 nM.

`CCn1cnc2cnc(C(=O)N[C@H](C)c3cnc(Nc4ccc(C(F)(F)F)cc4)s3)cc21` [Example 20]: the EC50 is not above 100 nM.

As for `C[C@@H](NC(=O)c1cn(C)cn1)c1ncc(C(=O)Nc2cc(C(F)(F)F)c(Cl)cn2)s1` [Example 143], the EC50 lay within 1000 to 10000 nM.

As to `CCc1ncc(C(=O)N[C@H](C)c2ncc(C(=O)Nc3cc(C(F)(F)F)c(Cl)cn3)s2)n1CC` [Example 163], the EC50 was in the range of 100 to 1000 nM.

For `CCc1nc2cnc(C(=O)NC(C)c3ncc(Nc4ccc(C(F)(F)F)cc4)s3)cn2c1N` (stereo not shown) [Example 307], the EC50 was in the range of 1000 to 10000 nM.

`Cc1nc(-c2cnccn2)sc1C(=O)N[C@H](C)c1ncc(C(=O)Nc2cc(C(F)(F)F)c(Cl)cn2)s1` [Example 100]: the EC50 was 1000 to 10000 nM.

On to `C[C@@H](NC(=O)c1cnc(N)s1)c1ncc(C(=O)Nc2cc(C(F)(F)F)c(Cl)cn2)s1` [Example 102], for which the EC50 was not above 100 nM.

As for `CC(NC(=O)c1ncc2ncn(C)c2n1)c1cnc(Nc2ccc(C(F)(F)F)cc2)cn1` (stereo not shown) [Example 191], the EC50 was 1000 to 10000 nM.

Regarding `C[C@@H](NC(=O)c1ccc2c(c1)NC(=O)CO2)c1ncc(C(=O)Nc2cc(C(F)(F)F)c(Cl)cn2)s1` [Example 66], the EC50 was not above 100 nM.

For the compound `Cc1nc2cnc(C(=O)NC(C)c3ncc(Nc4ccc(C(F)(F)F)cc4)s3)cn2c1Cl` (stereo not shown) [Example 308], the EC50 was in the range of 1000 to 10000 nM.

On to `CC(NC(=O)c1cc2c(cn1)ncn2C)c1cnc(Nc2cc(C(C)(C)C(F)(F)F)ccc2F)s1` (stereo not shown) [Example 274], for which the EC50 is not above 100 nM.

Take `CC(NC(=O)c1cc2c(cn1)ncn2C)c1cnc(Nc2ccc(C(C)(C)C(F)(F)F)cc2)s1` (stereo not shown) [Example 272]: the EC50 fell in the range of 100 to 1000 nM.

Consider `CCn1c(C(=O)N[C@H](C)c2ncc(C(=O)Nc3cc(C(F)(F)F)c(Cl)cn3)s2)cnc1C` [Example 151], for which the EC50 is not above 100 nM.

Regarding `CC(NC(=O)c1cnn2cc(-c3ccc(F)nc3)ccc12)c1ncc(C(=O)Nc2cc(C(F)(F)F)c(Cl)cn2)s1` (stereo not shown) [Example 322], the EC50 was 100 to 1000 nM.

With `CC(NC(=O)c1cccc(N2CCOCC2)n1)c1ncc(C(=O)Nc2cc(C(F)(F)F)c(Cl)cn2)s1` (stereo not shown) [Example 88], the EC50 was in the range of 100 to 1000 nM.

Consider `Cc1nc2cnc(C(=O)NC(C)c3cnc(Nc4ccc(C(F)(F)F)cc4)s3)cc2n1C` (stereo not shown) [Example 10], for which the EC50 was 100 to 1000 nM.

Turning to `Cc1ncc(C(=O)NC(C)c2ncc(C(=O)Nc3cc(C(F)(F)F)c(Cl)cn3)s2)n1-c1ccncc1` (stereo not shown) [Example 159], the EC50 was not above 100 nM.

Take `C[C@H](NC(=O)c1cc2c(cn1)ncn2C)c1cnc(Nc2cnc(C(C)(C)C)nc2)s1` [Example 242]: the EC50 is 1000 to 10000 nM.
